Experimental data published in patent US7576128B2 (priority 2004, dated 2009).
Substitutions are numbered along the chain they refer to.

Legend:
[1] = molecular target: T1, hAR (human androgen receptor) (Homo sapiens, UniProt P10275); assay: Competitive binding analysis on baculovirus/Sf9 generated hAR extracts with 3H-DHT tracer
T1 construct: made in house; host or cells: baculovirus/Sf9 insect cells
T1 sequence (P10275 1-920): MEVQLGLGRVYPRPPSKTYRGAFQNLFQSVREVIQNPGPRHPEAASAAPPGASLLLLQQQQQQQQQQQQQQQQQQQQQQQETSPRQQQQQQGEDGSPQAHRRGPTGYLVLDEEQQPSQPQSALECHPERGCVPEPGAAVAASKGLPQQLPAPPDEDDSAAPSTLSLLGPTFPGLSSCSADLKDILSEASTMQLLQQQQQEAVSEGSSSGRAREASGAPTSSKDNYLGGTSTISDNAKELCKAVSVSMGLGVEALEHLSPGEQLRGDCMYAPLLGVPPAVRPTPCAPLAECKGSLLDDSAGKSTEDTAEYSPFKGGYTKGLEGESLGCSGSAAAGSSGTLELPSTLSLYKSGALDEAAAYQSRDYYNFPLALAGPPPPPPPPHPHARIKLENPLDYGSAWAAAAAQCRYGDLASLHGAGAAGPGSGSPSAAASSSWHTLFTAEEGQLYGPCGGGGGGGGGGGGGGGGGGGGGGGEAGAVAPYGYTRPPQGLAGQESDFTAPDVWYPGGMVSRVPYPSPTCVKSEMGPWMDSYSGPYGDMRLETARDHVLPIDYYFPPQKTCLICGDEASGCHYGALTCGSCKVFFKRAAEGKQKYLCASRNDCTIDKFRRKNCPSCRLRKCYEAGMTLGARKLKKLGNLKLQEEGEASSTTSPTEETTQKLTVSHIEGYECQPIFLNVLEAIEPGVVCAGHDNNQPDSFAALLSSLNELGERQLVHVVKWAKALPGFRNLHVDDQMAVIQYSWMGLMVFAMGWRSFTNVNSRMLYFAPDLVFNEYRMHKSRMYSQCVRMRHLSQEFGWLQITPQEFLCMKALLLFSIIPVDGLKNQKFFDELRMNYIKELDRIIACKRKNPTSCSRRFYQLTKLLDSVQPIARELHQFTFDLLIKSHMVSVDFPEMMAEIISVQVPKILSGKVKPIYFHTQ
Method: The description below describes how the assay was carried out.
Competitive binding analysis was performed on baculovirus/Sf9 generated hAR extracts in the presence or absence of different concentrations of test agent and a fixed concentration of ^3H-dihydrotestosterone (^3H-DHT) as tracer. This binding assay method is a modification of a protocol previously described (Liao S., et. al. J. Steroid Biochem. 20:11-17 1984). Briefly, progressively decreasing concentrations of compounds are incubated in the presence of hAR extract (Chang et al. P.N.A.S. Vol. 89, pp. 5546-5950,1992), hydroxylapatite, and 1 nM ^3 H-DHT for one hour at 4° C. Subsequently, the binding reactions are washed three times to completely remove excess unbound ^3 H-DHT. hAR bound ^3H-DHT levels are determined in the presence of compounds (=i.e competitive binding) and compared to levels bound when no competitor is present (=i.e. maximum binding). Compound binding affinity to the hAR is expressed as the concentration of compound at which one half of the maximum binding is inhibited.

[2] = molecular target: T2, androgen receptor (Homo sapiens, UniProt P10275); assay: AR antagonist cell assay, MDA-MB453-MMTV clone 54-19 luciferase reporter; type: cell-based; details: read-out: AR Cell IC50; MDA-MB453-MMTV clone 54-19, 100 pM DHT, 17 hr; mean of multiple tests
T2 sequence (P10275 1-920 Q868H): T1 sequence (P10275 1-920) with Q868H
Method: The compounds ability to antagonize the effects of androgen on the androgen receptor were determined in a whole cell assay as described immediately below.
This cell line is a stable transfected cell line with MDA-MB453 cell background (a human breast tumor cell line expressing androgen receptor). A MMTV minimal promoter containing ARE was first cloned in front of a firefly luciferase reporter gene. Then the cascade was cloned into transfection vector pUV120puro. Electroporation method was used for transfecting MDA-MB-453 cell. Puromycin resistant stable cell line was selected.
• 1. Cells are maintained in culture medium, splitting cells when they reach 80-90% confluence • 2. To test compounds, 10,000 cells/well are plated to opaque 96 cell culture plate in 100 ul/well plating medium, culture for overnight at 37° C. in cell culture incubator • 3. Carefully remove plating medium, then add 80 ul/well of pre-warmed assay medium, add 10 ul/well testing compound (final concentration at) 1000 nM, 200 nM, 40 nM, 8 nM, 1.6 nM, and 0.32 nM), incubate at 37° C. for 30 minutes • 4. Add 10 ul/well freshly prepared DHT (final concentration at 100 pM) to each well, incubate at 37° C. for 17 hr (overnight) • 5.
The results are reported as the mean of multiple tests as described below (the numbers of tests are indicated in the footnote). N.D. denotes that the compound was not tested.

[3] = tested on: Male C3H/HeN mice; assay: Modified telogen conversion assay (hair growth, induction of anagen); type: in vivo; details: test concentration of 3% w/v, topical
Text: It has been discovered that male C3H/HeN mice may be used in the telogen conversion assay, when evaluating anti-androgen test compounds. Thus, the model relates to a modification of the existing telogen conversion assay. Male C3H/HeN mice approximately 7 weeks old are utilized. These animals are also uniformly in telogen, like their female counterparts. However, once shaven, the androgens inherently present in these male mice inhibit the conversion of the hair follicles to the anagen phase. An anti-androgen will block this androgenic effect and the follicles will convert to anagen, like their female counterparts.
Male C3H/HeN mice, 6 to 7 weeks old (Charles River Laboratories, Raleigh, N.C.) were used for the study. Fur was clipped from the dorsal region of the mice prior to initiation of the study. Only mice with pink skin, a visual indication of the telogen phase, were selected for inclusion in the study.
The test compound was dissolved in a vehicle consisting of propylene glycol (30%) and ethanol (70%) to achieve a concentration of either 0.2% w/v, 0.5% w/v, 1% w/v or 3% w/v. The relevant dose was applied topically to the clipped dorsal region of the mice in one test group (7-10 mice) in a volume of 20 μl/cm^2. A third group of animals received only the vehicle to serve as a control. Treatments were applied twice daily for 4 weeks.
The treatment area was observed and graded every other day for signs of hair growth. The hair growth response was quantified by recording, for each animal, the day on which signs of hair growth first appeared over the treated area. The first sign of anagen was the darkening of skin color as melanocytes in the follicles started to synthesize melanin in preparation for the production of pigmented hairs. […] The percentage of mice showing signs of hair growth in both the treatment group and the control group is graphically depicted in FIG. 1.

[4] = after 7 years of treatment; cited from earlier work

Q: What does the source list for `CC(C)C(O)C(C)(C)COc1ccc(C#N)c(Cl)c1` (stereo not shown) [Example 27, 2-Chloro-4-(3-Hy-droxy-2,2,4-trimethyl-pentyloxy)-benzonitrile]?
A: IC50 [1]: 63 nM; IC50 [2]: 0.04 nM; rate of hair growth versus vehicle control [3]: did not exceed that of the vehicle control

Q: Which “increase in spinal BMD” value [4] does the source give for `NCCCC(O)(P(=O)(O)O)P(=O)(O)O` [alendronate] here?
A: ≤ 11%
